The source made the active and inactive calls. The calls are words filed in the database; no cut-off is given here.

Drawing on ChEMBL document CHEMBL5154761, “Design, synthesis, and evaluation of 9-(pyrimidin-2-yl)-9H-carbazole derivatives disrupting mitochondrial homeostasis in human lung adenocarcinoma” (Eur J Med Chem, 2022), this text covers Activity, viability and inhibition for one compound.

Test [1] concerns A549. Description: Induction of apoptosis in human A549 cells assessed as late apoptotic cells at 1 uM incubated for 48 hrs by Annexin V-FITC/propidium iodide staining based flow cytometry analysis (reference value: 1.00%). It counts as functional. (In general: In flow cytometry, cells or beads pass a laser one at a time.)
For test [2], the system named is A549. Description: Induction of morphological changes in human A549 cells assessed as vacuolated microstructure of mitochondria by transmission electron microscopy. It counts as functional, cell-based.
The subject of test [3] is A549. Description: Induction of apoptosis in human A549 cells assessed as early apoptotic cells at 0.5 uM incubated for 48 hrs by Annexin V-FITC/propidium iodide staining based flow cytometry analysis (reference value: 1.46%). The format is functional.
Test [4] relates to A549. Description: Induction of apoptosis in human A549 cells assessed as increase in P53 protein expression at 0.5 to 1 uM measured after 48 hrs by Western blot assay. The format is functional, cell-based. The following applies: dose 0.5-1 µM. On the technique in general: Immunoblotting shows a protein as a band on a membrane.
For test [5], the system named is A549. The experiment in a line: Induction of apoptosis in human A549 cells assessed as viable cells at 1 uM incubated for 48 hrs by Annexin V-FITC/propidium iodide staining based flow cytometry analysis (reference value: 97.3%). It counts as functional. The following applies: read-out: Activity.
In test [6] the test system is A549. Description: Induction of apoptosis in human A549 cells assessed as increase in Bax protein expression at 0.5 to 1 uM measured after 48 hrs by Western blot assay. It counts as functional, cell-based. The note with it: dose 0.5-1 µM.
Test [7] concerns A549. Description: Inhibition of mitochondrial respiration in human A549 cells assessed as reduction in respiratory control ratio by seahorse XFe24 flux analyzer. It counts as functional, cell-based. The following applies: dose 0.5-2 µM, DDE = dose-dependent effect.
The subject of test [8] is A549. The experiment in a line: Induction of apoptosis in human A549 cells assessed as late apoptotic cells at 0.5 uM incubated for 48 hrs by Annexin V-FITC/propidium iodide staining based flow cytometry analysis (reference value: 1.00%). The format is functional.
Test [9] has as its system A549. Description: Induction of cell cycle arrest in human A549 cells assessed as accumulation at G2/M phase at 0.5 uM incubated for 48 hrs by PI staining based flow cytometry analysis (reference value: 18.14). It counts as functional.
In test [10] the test system is A549. Description: Inhibition of mitochondrial membrane potential in human A549 cells by JC-1 staining based confocal microscopy. The format is functional, cell-based. The following applies: dose 1.0 µM, DDE = dose-dependent effect.
The test system of test [11] is A549. Description: Induction of morphological changes in human A549 cells assessed as swollen microstructure of mitochondria by transmission electron microscopy. It counts as functional, cell-based.
Test [12] has as its system A549. The experiment in a line: Induction of cell cycle arrest in human A549 cells assessed as decrease in cyclin D1 expression upto 1 uM incubated for 48 hrs by Western blot analysis. The format is functional, cell-based.
Test [13] deals with A549. Description: Antitumor activity against human A549 cells xenografted in BALB/c nude mouse assessed as necrotic cells at 2 mg/kg, ip administered once daily for 14 days by H and E staining. The format is functional, organism-based. The note with it: time 14.0 day.
The subject of test [14] is A549. The experiment in a line: Induction of apoptosis in human A549 cells assessed as decrease in caspase 7 protein expression at 0.5 to 1 uM measured after 48 hrs by Western blot assay. The format is functional, cell-based. The following applies: dose 0.5-1 µM.
The test system of test [15] is A549. Description: Induction of apoptosis in human A549 cells assessed as increase in cleaved caspase 7 protein expression at 0.5 to 1 uM measured after 48 hrs by Western blot assay. The format is functional, cell-based. The note with it: dose 0.5-1 µM.

Turning to `O=C(c1ccc2c(c1)OCO2)c1cccc2c3ccccc3n(-c3ncccn3)c12`, the Activity with A549 [1] is 6.98%; with A549 [3] it was 2.71%; in the test with A549 [8], 2.17%; in the test on A549 [9], 23.16%. Moreover, the result with A549 [2], in the test with A549 [4], in the test with A549 [6], with A549 [11], with A549 [12] and with A549 [13] was Active. In addition, the result in the test with A549 [14] and in the test with A549 [15] was Active. The viability at 1 µM in the test with A549 [5] worked out at 78.9%. Moreover, the inhibition result in the test with A549 [7] and in the test with A549 [10] was “Dde” in each case.
